Assay results as given in PubChem BioAssay (NCI).
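How tested: cells in 96-well plates exposed to compound for 48 hours at five concentrations. GI50 marks 50% less growth. At the TGI there is no net growth.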

How the values were obtained:
Assay in all cases: NCI-60 cell line screen, 48 h
A498 renal = system: A498 renal
TK-10 renal = system: TK-10 renal
CAKI-1 renal = system: CAKI-1 renal
RPMI-8226 leukemia = system: RPMI-8226 leukemia
CCRF-CEM leukemia = system: CCRF-CEM leukemia
KM12 colon = system: KM12 colon
ACHN renal = system: ACHN renal
NCI-H460 lung = system: NCI-H460 lung
EKVX NSCLC = system: EKVX NSCLC
NCI/ADR-RES ovarian = system: NCI/ADR-RES ovarian

Row | Compound | TGI (A498 renal) | TGI (TK-10 renal) | TGI (CAKI-1 renal) | TGI (RPMI-8226 leukemia) | TGI (CCRF-CEM leukemia) | TGI (KM12 colon) | TGI (ACHN renal) | TGI (NCI-H460 lung) | TGI (EKVX NSCLC) | GI50 (A498 renal) | GI50 (TK-10 renal) | GI50 (CAKI-1 renal) | GI50 (RPMI-8226 leukemia) | GI50 (CCRF-CEM leukemia) | GI50 (NCI/ADR-RES ovarian) | TGI (NCI/ADR-RES ovarian) | GI50 (KM12 colon) | GI50 (ACHN renal) | GI50 (NCI-H460 lung) | GI50 (EKVX NSCLC)
1 | COCCOCC(=O)N(CCn1ccc(NC(c2ccccc2)(c2ccccc2)c2ccccc2)nc1=O)CCn1cnc2nc(N)[nH]c(=O)c21 | > 100 µM | > 100 µM | > 100 µM | > 100 µM | > 100 µM | > 100 µM | > 100 µM | > 100 µM | > 100 µM | – | – | – | – | – | – | – | – | – | – | –
2 | CC(=O)OCC1O[C@@H]([S-])C(OC(C)=O)[C@H](OC(C)=O)[C@@H]1OC(C)=O.[Au+].c1ccc(CN2[CH-]N(Cc3ccccc3)C(c3ccccc3)=C2c2ccccc2)cc1 | 4.02 µM | 3.42 µM | 3.95 µM | 4.94 µM | 5.51 µM | 4.27 µM | 3.51 µM | – | – | 2.06 µM | 1.86 µM | 2 µM | 1.9 µM | 1.99 µM | 5.21 µM | > 100 µM | 2.09 µM | 1.82 µM | – | –
3 | N#CC1(C=O)c2ccccc2C=CN1C(=O)c1ccccc1 (configuration not stated) | > 100 µM | > 100 µM | > 100 µM | – | 78.4 µM | > 100 µM | > 100 µM | > 100 µM | > 100 µM | – | – | – | – | – | – | – | – | – | – | –
4 | C/C(Cc1ccc(Cl)cc1)=C(/c1ccc(Cl)cc1)c1ccc(OCCN(C)C)cc1 | – | 10.8 µM | 8.98 µM | 3.81 µM | 12.9 µM | 8.95 µM | 9.56 µM | 4.49 µM | 9.22 µM | – | 5.1 µM | 4.63 µM | 1.07 µM | 4.17 µM | 4.8 µM | 9.88 µM | 4.16 µM | 5.12 µM | 1.22 µM | 4.75 µM
5 | COc1ccc(CNc2nc3c(NC(C)=O)cc(C(F)(F)F)cc3nc2-c2ccccc2)cc1OC | > 100 µM | > 100 µM | > 100 µM | > 100 µM | > 100 µM | > 100 µM | – | > 100 µM | > 100 µM | – | – | – | – | – | – | – | – | – | – | –
6 | CC(=O)[O-].O=C([CH-]C(=O)c1ccccc1)c1ccccc1.O=C([CH-]C(=O)c1ccccc1)c1ccccc1.[Y+3] | 41.1 µM | 66.5 µM | 19.4 µM | 33 µM | – | 24.5 µM | 22.9 µM | 18.4 µM | 17.8 µM | 16.7 µM | 8.27 µM | 4.53 µM | 4.47 µM | – | – | – | 4.36 µM | 5.52 µM | 2.69 µM | 3.59 µM
7 | CCC1CCc2nc3sc(C(=O)Nc4ccccc4C)c(N)c3cc2C1 (configuration not stated) | > 100 µM | > 100 µM | > 100 µM | > 100 µM | > 100 µM | > 100 µM | > 100 µM | > 100 µM | – | 0.313 µM | 0.833 µM | 0.451 µM | 0.329 µM | 0.331 µM | 0.785 µM | > 100 µM | 0.502 µM | 0.835 µM | 0.627 µM | –
8 | CN(C)c1n/c(=N/c2ncn[nH]2)ss1 | > 100 µM | > 100 µM | > 100 µM | > 100 µM | > 100 µM | > 100 µM | > 100 µM | > 100 µM | > 100 µM | – | – | – | – | – | – | – | – | – | – | –
